Assay results reported in PubChem BioAssay AID328 (DTP/NCI, 2004).
Several values for one entry are separate records, joined by “and”; a condition that tells them apart may be missing. Equal entries are not always repeated. Inconclusive results and toxic doses are left out. The calls were made as follows: active = survival T/C of 150% or more; inactive = T/C below 125% in these data.

System: BDF1 mice, P388 leukemia ip, median survival T/C
Assay: NCI In Vivo Anticancer Drug Screen. Data for tumor model P388 Leukemia (intraperitoneal) in B6D2F1 (BDF1) mice
Conditions: endpoint: median survival time, higher = longer survival
Outline: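 In tumour-bearing mice, survival after compound treatment is set against the vehicle group and given as a quotient.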

[1] = dose: 12.5 mg/kg/injection, schedule: Q01DX009 (ip), vehicle: saline with Tween-80
[2] = dose: 25.0 mg/kg/injection, schedule: Q01DX009 (ip), vehicle: saline with Tween-80
[3] = dose: 50.0 mg/kg/injection, schedule: Q01DX009 (ip), vehicle: saline with Tween-80
[4] = dose: 100.0 mg/kg/injection, schedule: Q01DX009 (ip), vehicle: saline with Tween-80

Measured: T/C

COc1ccc2ccccc2c1/C=N/N1CCCCC1
inactive: dose: 100.0 mg/kg/injection, schedule: Q04DX003 (ip), vehicle: saline with Tween-80 110 % of control | dose: 200.0 mg/kg/injection, schedule: Q04DX003 (ip), vehicle: saline with Tween-80 95 % of control | dose: 400.0 mg/kg/injection, schedule: Q04DX003 (ip), vehicle: saline with Tween-80 115 % of control

O.[Co].[Co].[NH2-].[NH2-].[NH2-].[NH2-].[NH2-].[NH2-].[NH2-].[NH2-].[NH2-]
inactive: dose: 0.5 mg/kg/injection, schedule: Q01DX009 (ip), vehicle: water 100 % of control | dose: 1.5 mg/kg/injection, schedule: Q04DX003 (ip), vehicle: water 121 % of control | dose: 2.0 mg/kg/injection, schedule: Q01DX009 (ip), vehicle: water 95 % of control | dose: 3.0 mg/kg/injection, schedule: Q04DX003 (ip), vehicle: water 95 % of control | dose: 4.0 mg/kg/injection, schedule: Q01DX009 (ip), vehicle: water 100 % of control

C[C@H]1/C(=C/C(=O)OCCN(C)C)CC[C@H]2[C@H]1C(=O)C[C@H]1C(C)(C)[C@@H](O)CC[C@]21C
inactive: dose: 4.0 mg/kg/injection, schedule: Q01DX010 (ip), vehicle: saline 100 % of control | dose: 8.0 mg/kg/injection, schedule: Q01DX010 (ip), vehicle: saline 100 % of control | dose: 16.0 mg/kg/injection, schedule: Q01DX010 (ip), vehicle: saline 104 % of control | dose: 32.0 mg/kg/injection, schedule: Q01DX010 (ip), vehicle: saline 95 % of control and 104 % of control

Cc1cc2c(C(C)C)c(O)c(O)cc2c(O)c1-c1c(C)cc2c(C(C)C)c(O)c(O)cc2c1O
inactive: [1] 91 % of control | [2] 100 % of control | [3] 120 % of control

CC1CCC2CON(C(C)(C)C)C2C1 (stereo not given)
inactive: [3] 100 % of control | [4] 100 % of control

COc1cc2cnc3c4cc(OC)c(OC)cc4ccc3c2cc1OC
inactive: dose: 20.0 mg/kg/injection, schedule: Q01DX009 (ip), vehicle: saline with Tween-80 100 % of control | dose: 40.0 mg/kg/injection, schedule: Q01DX009 (ip), vehicle: saline with Tween-80 100 % of control | dose: 80.0 mg/kg/injection, schedule: Q01DX009 (ip), vehicle: saline with Tween-80 115 % of control | dose: 120.0 mg/kg/injection, schedule: Q01DX009 (ip), vehicle: saline with Tween-80 100 % of control | dose: 240.0 mg/kg/injection, schedule: Q01DX009 (ip), vehicle: saline with Tween-80 100 % of control

O=C1NC(=O)C(c2cccs2)(c2cccs2)N1
inactive: dose: 25.0 mg/kg/injection, schedule: Q01DX009 (ip), vehicle: water 115 % of control | dose: 100.0 mg/kg/injection, schedule: Q01DX009 (ip), vehicle: water 111 % of control | dose: 100.0 mg/kg/injection, schedule: Q04DX003 (ip), vehicle: water 99 % of control | dose: 200.0 mg/kg/injection, schedule: Q04DX003 (ip), vehicle: water 98 % of control

COc1cccc(CCCC(=O)CS(C)=O)c1 (stereo not given)
inactive: dose: 50.0 mg/kg/injection, schedule: Q01DX009 (ip), vehicle: saline 98 % of control | dose: 100.0 mg/kg/injection, schedule: Q01DX009 (ip), vehicle: saline 102 % of control | dose: 200.0 mg/kg/injection, schedule: Q01DX009 (ip), vehicle: saline 109 % of control

Cc1cc(Br)c2nsnc2c1[N+](=O)[O-]
inactive: dose: 50.0 mg/kg/injection, schedule: Q01DX005 (ip), vehicle: saline with Tween-80 118 % of control | dose: 400.0 mg/kg/injection, schedule: Q01DX005 (ip), vehicle: saline with Tween-80 118 % of control

COc1cc2c(cc1OC)/C(=N\O)CCCC2
inactive: [3] 119 % of control | [4] 114 % of control | dose: 100.0 mg/kg/injection, schedule: Q04DX003 (ip), vehicle: Klucel (hydroxypropylcellulose) (HPC) 100 % of control | dose: 200.0 mg/kg/injection, schedule: Q01DX009 (ip), vehicle: saline with Tween-80 90 % of control | dose: 200.0 mg/kg/injection, schedule: Q04DX003 (ip), vehicle: Klucel (hydroxypropylcellulose) (HPC) 100 % of control | dose: 400.0 mg/kg/injection, schedule: Q04DX003 (ip), vehicle: Klucel (hydroxypropylcellulose) (HPC) 100 % of control

Cc1ccc(CBr)c2ccccc12
inactive: dose: 6.25 mg/kg/injection, schedule: Q01DX009 (ip), vehicle: saline with Tween-80 102 % of control | [1] 114 % of control | [2] 124 % of control | [3] 105 % of control | [4] 121 % of control

Clc1ncn[nH]1
inactive: dose: 100.0 mg/kg/injection, schedule: Q01DX001 (ip), vehicle: saline sonified 120 % of control | dose: 200.0 mg/kg/injection, schedule: Q01DX001 (ip), vehicle: saline sonified 112 % of control | dose: 400.0 mg/kg/injection, schedule: Q01DX001 (ip), vehicle: saline sonified 120 % of control
